Test results reported in patent US11440932B2, “Surfactant compounds-clips for extraction and stabilization in solution of membrane proteins” (CENTRE NATIONAL DE LA RECHERCHE SCIENTIFIQUE, priority 2017, dated 2022).

Assays:
[1] = Critical micelle concentration (CMC) by DPH fluorescence; format: physicochemical
Protocol: FIG. 4 represents the fluorescence (%) of DPH (1,6-diphenyl-1,3,5-hexatriene) in the presence of increasing concentrations (0.0001 mM, 0.001 mM, 0.01 mM, 0.1 mM, 1 mM and 10 mM) of clips (compounds of the invention), exemplified with the compounds #3.7e (C13, points represented by squares) and 3.7f (C18, points represented by circles). The experiment is carried out in triplicates. In accordance with Chattopadhyay, A. & London, E ([22]), the CMC corresponds to the concentration at which the breakage in the slope is observed, here at 20 μM for 3.7f and 2 mM for 3.7e (black symbols).
Procedure. The molecules of the invention were prepared in a range of concentrations extending from 0.1 μM to 10 mM in 50 mM tris-HCl, pH 8.0 and neutralized at this pH. To 80 μl of each solution (triplicate), the same volume of 10 μM of 1,6-diphenyl-1,3,5-hexatriene (DPH, Sigma, D208000) is added, prepared at 100 μM in tetrahydrofuran then diluted 10-fold in H2O. The increase in the fluorescence of the DPH occurs when the latter find micelles of clips into which it can insert itself (Chattopadhyay, A. & London, E. Fluorimetric determination of critical micelle concentration avoiding interference from detergent charge. Anal Biochem 139, 408-412 (1984) ([22])). The fluorescence is read with a Xenius SAFAS fluorimeter by exciting at 358 nm and recording the fluorescence emission at 430 nm, with slits of 9 to 10 nm for the excitation and the emission and a gain of 100 to 150, depending on the cases.
Results. The CMC of the detergents is the concentration starting from which they associate with one another to form micelles, in which, in aqueous solution, the hydrophobic portions are grouped together at the center and the hydrophilic regions are exposed to the solvent. […] A typical result obtained with a compound 3.7 provided with a C13 (3.7e) or C18 ([…]) aliphatic chain is illustrated in FIG. 4.

BmrA [2] = target: T1, BmrA (Bacillus subtilis, UniProt O06967); assay: Extraction of BmrA from membranes (SDS-PAGE of supernatant); design: species or system bacterial; overexpressed in E. coli C41DE3; conditions: detergent 10 g/l unless indicated otherwise; 2 h at 4° C.
T1 construct: His tag; made in house; host or cells: E. coli C41(DE3)
T1 sequence (O06967 whole entry): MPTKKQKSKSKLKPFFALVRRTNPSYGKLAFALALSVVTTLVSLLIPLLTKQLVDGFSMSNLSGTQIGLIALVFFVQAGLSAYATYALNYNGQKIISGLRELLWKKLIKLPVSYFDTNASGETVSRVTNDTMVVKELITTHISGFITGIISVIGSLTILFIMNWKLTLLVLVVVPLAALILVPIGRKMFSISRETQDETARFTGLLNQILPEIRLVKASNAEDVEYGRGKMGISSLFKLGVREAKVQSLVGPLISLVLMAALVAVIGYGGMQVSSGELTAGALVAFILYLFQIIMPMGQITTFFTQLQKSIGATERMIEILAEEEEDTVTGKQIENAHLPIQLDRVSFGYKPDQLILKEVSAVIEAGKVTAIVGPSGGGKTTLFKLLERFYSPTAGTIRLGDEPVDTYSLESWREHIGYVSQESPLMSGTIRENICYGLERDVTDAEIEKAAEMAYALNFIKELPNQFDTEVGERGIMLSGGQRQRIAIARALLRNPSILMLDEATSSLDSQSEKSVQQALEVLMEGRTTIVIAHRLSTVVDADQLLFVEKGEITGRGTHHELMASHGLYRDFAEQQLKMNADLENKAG
Protocol: (§1) FIG. 6 depicts the extraction of the membrane proteins BmrA (panels A and C) and AcrB (panels B and D) using commercial detergents and the molecules of the invention (panels A and B, from left to right): SDS, DDM, FC12, TX100, compounds of the invention 1.4, 1.5, 2.3a, 2.3b, 2.3c, 2.3d, 2.3e, 2.3f, 2.3g, 2.3h, 2.3i, 3.7a, 3.7b; panel C: compounds of the invention 3.7c 0.8%, 3.7d 0.16%, 3.7e 0.8%, 3.7f 0.3%, 3.7g 0.4%, 3.7h 0.2%, 3.7i 0.07%, 3.7j 0.09%, 3.7k, 3.7l, 0.25%, 3.9a, 4.5a, 4.5b, 4.5c, 4.5d 0.34%, 4.6a, 4.6b, 4.6c, 4.6d, 5.3a, 5.3b, 5.3c 0.3%, 5.3d 0.3%; panel D: 3.7c, 3.7d, 3.7e, 3.7f, 3.7h, 3.7i 0.1%, 3.7j, 3.7k, 3.7l, 3.9a, 4.5a, 4.5b, 4.5c, 4.5d, 4.6a, 4.6b, 4.6c, 4.6d. The detergents are added at 10 g/l (1%), unless indicated otherwise. The equivalent of 20 μg of proteins of the extracted fraction after centrifugation at 100 000×g for 30 min is deposited on 10% SDS-PAGE, stained with Coomassie blue after migration. BmrA migrates in its monomeric form to the level of the 55 kDa band; AcrB migrates in its monomeric form to the level of the 100 kDa band. SDS=sodium dodecyl sulfate; DDM=β-D-dodecyl maltoside; FC12=foscholine-12; TX100=triton X-100.
(§2) The extraction capacity of the detergents of the series is tested on membranes in which BmrA or AcrB are strongly expressed. The extraction with the clips (molecules of the invention) is compared to that obtained with commercial detergents, used as reference.
(§3) Procedure. BmrA represents 25% of the proteins present in the overexpression system used (E. coli, C41DE3). These membranes are prepared as described previously (Matar-Merheb, R. et al. ([11])). The membranes containing AcrB (approximately 20% of the membrane proteins, same expression system as BmrA) were prepared as described previously (Seeger, M. A. et al. ([21])). The detergents are used at 10 g/l unless indicated otherwise, and the proteins diluted at 2 g/l in a 20 mM Tris-HCl buffer, pH 8.0, 100 mM NaCl, 15% glycerol, with protease inhibitors (Roche) added thereto at an amount of one tablet/100 ml. The mixture (T) is incubated for 2 h at 4° C. then centrifuged for 1 h at 4° C. at 100 000×g in order to separate the extracted fraction (supernatant, S) from that which is not extracted (pellet). The supernatants are deposited on 10% SDS-PAGE and stained with Coomassie blue after migration. The foscholine 12, DDM and LMNG originate from Anatrace, the SDS and Triton X100 originate from Sigma-Aldrich.

AcrB = target: T2, AcrB (Escherichia coli, UniProt P31224); assay: Extraction of AcrB from membranes (SDS-PAGE of supernatant); design: species or system bacterial; same expression system (E. coli C41DE3); conditions: detergent 10 g/l unless indicated otherwise; 2 h at 4° C.
T2 construct: made in house; host or cells: E. coli C41(DE3)
T2 sequence (P31224 whole entry): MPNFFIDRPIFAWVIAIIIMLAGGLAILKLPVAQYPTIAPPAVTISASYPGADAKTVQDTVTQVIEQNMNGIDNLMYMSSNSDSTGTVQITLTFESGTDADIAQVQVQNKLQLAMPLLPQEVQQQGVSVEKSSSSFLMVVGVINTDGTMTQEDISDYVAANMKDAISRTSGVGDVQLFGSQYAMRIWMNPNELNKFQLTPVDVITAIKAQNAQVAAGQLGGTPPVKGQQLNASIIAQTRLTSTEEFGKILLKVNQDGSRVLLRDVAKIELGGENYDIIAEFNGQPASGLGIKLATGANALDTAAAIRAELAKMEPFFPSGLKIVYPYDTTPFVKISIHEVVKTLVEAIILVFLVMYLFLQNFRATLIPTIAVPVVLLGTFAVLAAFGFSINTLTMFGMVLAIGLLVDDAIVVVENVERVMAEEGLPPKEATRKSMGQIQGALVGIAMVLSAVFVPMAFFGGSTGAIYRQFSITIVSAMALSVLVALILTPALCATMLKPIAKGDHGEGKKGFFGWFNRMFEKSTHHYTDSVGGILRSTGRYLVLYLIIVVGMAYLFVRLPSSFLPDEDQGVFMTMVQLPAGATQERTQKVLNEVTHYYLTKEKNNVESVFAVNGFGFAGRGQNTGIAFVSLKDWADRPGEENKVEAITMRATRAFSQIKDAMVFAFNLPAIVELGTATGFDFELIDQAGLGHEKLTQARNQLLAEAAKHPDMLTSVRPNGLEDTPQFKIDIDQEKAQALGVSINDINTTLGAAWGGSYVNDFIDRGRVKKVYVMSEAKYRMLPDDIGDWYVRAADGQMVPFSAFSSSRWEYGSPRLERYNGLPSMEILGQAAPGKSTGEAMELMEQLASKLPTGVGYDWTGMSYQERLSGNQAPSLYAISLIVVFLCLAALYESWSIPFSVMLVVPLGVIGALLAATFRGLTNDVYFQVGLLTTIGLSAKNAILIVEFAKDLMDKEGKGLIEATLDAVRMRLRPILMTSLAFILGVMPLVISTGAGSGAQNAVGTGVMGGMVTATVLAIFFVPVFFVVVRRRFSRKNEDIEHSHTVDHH
Protocol: as §1, §2, §3

[3] = Diameter of micelles by dynamic light scattering (DLS); format: physicochemical; conditions: estimated micelle diameter by DLS; 30 mM tris-HCl, pH 8.0
Protocol: FIG. 5 depicts the dynamic light scattering (DLS) of clips, in intensity (%, column A on the left) and in number (%, column B on the right), as a function of the […] (nm). The estimated diameters are indicated on each panel (column A). Columns A and B, from top to bottom: compound 3.7c (10 mM, 5×CMC), compound 3.7d (10 mM, 5×CMC), compound 3.7e (2 mM, […]), compound 3.7f (10 mM, 500×CMC), compound 3.7h (1 mM, 100×CMC), compound 3.7j (2 mM, 100×CMC), compound 3.9a (1 mM, 50×CMC).
Another physicochemical parameter of the micelles of detergents is their diameter, assuming that they are spherical. This dimension is obtained by the light scattering (DLS) technique.
Procedure. The molecules of the invention tested were prepared in a range of concentrations extending from 0.1 to 1000×CMC in 30 mM tris-HCl, pH 8.0 and neutralized at this pH. The solutions are filtered on 0.22 μm. The measurement is carried out on 100 μl, in triplicate on a Zetasizer Nano-S from Malvern Instruments.

BmrA [4] = target: T1, BmrA; assay: Size exclusion chromatography of BmrA after detergent exchange; conditions: Superdex 200 5/150, 2 CMC of detergent, 0.3 ml/min
Protocol: The membrane fraction was extracted and purified in DDM by Ni-NTA metal affinity and Superdex 200 size exclusion, before being reloaded on Ni-NTA in order to exchange the DDM either with itself or with the compound 3.7c. Each pool was subsequently loaded onto a 3 ml Superdex S200 5/150 size exclusion column and eluted in the presence of 2 CMC of the same detergent, as indicated. The proteins are detected by absorbance at 280 nm.
The capacity of the compounds of the invention to maintain the membrane proteins in a native state was exemplified with the compound 3.7c of the invention, monitored by size exclusion chromatography and compared to the reference detergent DDM.
Procedure: BmrA was extracted in DDM and purified by Ni-NTA affinity chromatography as described in example 13, then loaded onto a Superdex 200 10/300 size exclusion column and eluted with 50 mM Hepes-HCl pH 8.0, 100 mM NaCl, 0.4 mM DDM (2×CMC). The fractions containing BmrA were pooled and separated into several aliquots (˜100 μg) kept at 4° C. One aliquot was subsequently reloaded onto an affinity column containing 1 ml of resin. The DDM was then exchanged against 10 volumes of Hepes-NaCl buffer containing either 2 CMC of DDM (control experiment) or 2 CMC of compound 3.7c (2 mM). BmrA was subsequently eluted in the respective buffers with 100 mM of imidazole added. The fractions containing the proteins were combined and concentrated on 50 kDa amicon (regenerated cellulose) to 50 μl, and were then deposited on a 3 ml Superdex 200 5/150 size exclusion column, equilibrated in 50 mM Hepes-HCl pH 8.0, 100 mM NaCl, and 2 CMC of DDM (0.4 mM) or 3.7c (2 mM). The elution was subsequently carried out at 0.3 ml/min in the respective buffers and the BmrA detected at 280 nm.

CCCCCCCCCCCCCCCCCCC(=O)N[C@@H](COCc1cn(CCO[C@@H]2OC(CO)[C@@H](O[C@H]3OC(CO)[C@@H](O)C(O)C3O)C(O)C2O)nn1)C(=O)N[C@H](CCC(=O)O)C(=O)O (some centres unmarked) [Compound 3.7f]
CMC ([1]; 50 mM tris-HCl, pH 8.0): 0.02 mM
CMC (breakage in the slope of DPH fluorescence, FIG. 4) ([1]; triplicates): 20 µM
extraction of BmrA (BmrA [2]): extracting
extraction of AcrB (AcrB): extracting
Ø, nm [3]: 4.0 nm

CCCCCCCCCCCCO[C@@H]1O[C@H](CO)[C@@H](O[C@H]2O[C@H](CO)[C@@H](O)[C@H](O)[C@H]2O)[C@H](O)[C@H]1O [DDM, n-dodecyl β-d-maltoside, reference compound]
elution volume of BmrA (BmrA [4]): ~1.6 mL
extraction of BmrA (BmrA [2]): solubilize
extraction of AcrB (AcrB): solubilize
